{"source": "patent US4427659A", "about": "“Muramyl peptide substituted on a peptide nitrogen and medicaments containing the same” (Agence Nationale de Valorisation de la Recherche (ANVAR), priority 1979, dated 1984)", "key": {"Ovalbumin": {"test_system": "Ovalbumin", "experiment": "Adjuvant character in emulsion (FIA): delayed hypersensitivity and specific anti-bodies to ovalbumin", "assay_type": "in vivo, Hartley males", "conditions": "100 μg where printed, no dose given for the methyl ester; for φ mm induration after 48 h: delayed hypersensitivity to 0.025 mg ovalbumin intradermal, 18 days after immunisation with 1 mg ovalbumin in FIA emulsion; for antibodies Log2 μg/ml: serum 21 days after injection, nitrogen precipitatable by ovalbumin, 1 mg ovalbumin in FIA emulsion", "protocol": "The tests were carried out on batches of 6 Hartley males of 350 g. The administration was done by intradermal injection into the plantar pad of each of the rear paws. Ovalbumin (constituting the antigen) in the proportion of 1 mg is prepared in 0.1 ml of an emulsion of saline isotonic solution, in an oily phase constituted by the Freund incomplete adjuvant (FIA).\nEighteen days after this immunisation, possible delayed hypersensitivity reactions (HSR) to the antigen were sought by injecting by the intradermal route 0.025 mg of ovalbumin in the side of the animals, […] The diameter in millimiters of the reaction so-caused was measured.\nTwenty one days after the injection, the animals were bled. In the serum collected, the contents of specific anti-bodies of the ovalbumin was measured by precipitation of the antibody-antigen complex in the equivalent zone. The amount of protein nitrogen contained in this precipitate was devaluated by the Folin method. The mean values of the contents of antibodies are indicated in the Table of results by the logarithm to base 2. These values express the amount, in micrograms of nitrogen precipitatable by the antigen, per millimiter of serum."}, "[1]": {"test_system": "bovine serum albumin (BSA)", "experiment": "Adjuvant character in the aqueous phase: anti-body level by passive hemagglutination after BSA with the substance", "assay_type": "in vivo", "conditions": "Swiss mice, SC; for Log2 hemagglutinating titer, Primary response D 28: 0.5 mg BSA with 0.1 mg substance in isotonic saline, before booster; for Log2 hemagglutinating titer, Secondary response D 36: 0.5 mg BSA with 0.1 mg substance, booster 0.1 mg BSA thirty days later, six days after booster", "protocol": "Groups of 8 Swiss mice aged two months receive, by sub-cutaneous injection (SC), 0.5 mg of antigen constituted by bovine serum albumin (BSA) with (0.1 mg) or without the substance under test in an isotonic saline solution. This high dose of antigen, because it is situated at the limit of the paralysing dose with respect to the immune response, results, through this fact, in a weak or nul response to the antigen alone in the controls; it constitutes therefore a severe criterion to establish the activity of an adjuvant substance. Thirty days later, the mice receive, by the same route of administration, a booster containing 0.1 mg of the same antigen.\nThe anti-body level is determined, before and six days after the booster, by passive hemagglutination using sheep's red blood cells treated with formalin and covered with the antigen under study according to the method described by A. A. HIRATA and M. W. BRANDISS (J. Immunol., 100, 641-648, 1968).\nThe anty-body titer, represented by the maximum serum dilution agglutinating a given amount of sheep's red blood cells reaches a maximum at the 36th day following the first injection and is estblished in the following manner."}, "rabbit": {"test_system": "rabbit", "conditions": "in vivo", "source_text": "In addition, the eventuality of a pyrogenic effect in the rabbit was sought, by following the protocol of the European Pharmacopoea, Vol. 2, 1971, pages 58-60."}}}
{"molecule": "CC(=O)N[C@@H]1[C@@H](O[C@H](C)C(=O)N[C@@H](C)C(=O)N[C@H](CCC(=O)O)C(N)=O)[C@H](O)[C@@H](CO)O[C@H]1O", "note": "[MDP, reference compound]", "values": [{"measurement": "φ mm induration after 48 h", "setting": "Ovalbumin", "result": "11.5 ± 2.5", "unit": "mm"}, {"measurement": "antibodies Log2 μg/ml", "setting": "Ovalbumin", "result": "12.31 ± 1.01", "unit": "Log2 μg/ml"}, {"measurement": "Log2 hemagglutinating titer, Primary response D 28", "setting": "[1]", "result": 3.64}, {"measurement": "Log2 hemagglutinating titer, Secondary response D 36", "setting": "[1]", "result": "8.34 ± 1.34"}]}
{"molecule": "N-acetyl-muramyl-N-methyl-L-alanyl-D-isoglutamine [MDP-(N--methyl-Ala)]", "values": [{"measurement": "φ mm induration after 48 h", "setting": "Ovalbumin", "result": "14 ± 0.8", "unit": "mm"}, {"measurement": "antibodies Log2 μg/ml", "setting": "Ovalbumin", "result": "12.51 ± 0.88", "unit": "Log2 μg/ml"}, {"measurement": "Log2 hemagglutinating titer, Primary response D 28", "setting": "[1]", "result": 4.64}, {"measurement": "Log2 hemagglutinating titer, Secondary response D 36", "setting": "[1]", "result": "9.27 ± 1.19"}, {"measurement": "pyrogenic character", "setting": "rabbit", "result": "absence of a pyrogenic character"}]}
{"molecule": "N-acetyl-muramyl-N-methyl-L-alanyl-D-glutamine-methyl-ester [MDP-(N--methyl-Ala)--OCH3]", "values": [{"measurement": "φ mm induration after 48 h", "setting": "Ovalbumin", "result": "5 ± 2", "unit": "mm"}, {"measurement": "antibodies Log2 μg/ml", "setting": "Ovalbumin", "result": "10.11 ± 0.6", "unit": "Log2 μg/ml"}, {"measurement": "Log2 hemagglutinating titer, Secondary response D 36", "setting": "[1]", "result": 5.11}, {"measurement": "pyrogenic character", "setting": "rabbit", "result": "absence of a pyrogenic character"}]}
